# Measurements as given in PubChem BioAssay (NCI).
#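 Tested at 5 concentrations; 48 h exposure; 96-well plates; endpoints linearly interpolated, else capped at highest concentration. TGI: total growth inhibition.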
# Assays:
# Assay in all cases: NCI tumour cell line growth inhibition, 48 h
# [1] = system: 786-0 renal
# [2] = system: A498 renal
# [3] = system: A549 NSCLC
# [4] = system: ACHN renal
# [5] = system: CAKI-1 renal
# [6] = system: CCRF-CEM leukemia
# [7] = system: COLO 205 colon
# [8] = system: DLD-1 colon
# [9] = system: DMS 114 small cell lung
# [10] = system: DMS 273 small cell lung
# [11] = system: HCC-2998 colon
# [12] = system: HCT-116 colon
# [13] = system: HCT-15 colon
# [14] = system: HL-60(TB) leukemia
# [15] = system: HOP-18 NSCLC
# [16] = system: HOP-62 NSCLC
# [17] = system: HT29 colon
# [18] = system: IGROV1 ovarian
# [19] = system: K-562 leukemia
# [20] = system: KM12 colon
# [21] = system: LOX IMVI melanoma
# [22] = system: LXFL 529 NSCLC
# [23] = system: M14 melanoma
# [24] = system: M19-MEL melanoma
# [25] = system: MALME-3M melanoma
# [26] = system: MOLT-4 leukemia
# [27] = system: NCI-H226 lung
# [28] = system: NCI-H23 lung
# [29] = system: NCI-H460 lung
# [30] = system: NCI-H522 lung
# [31] = system: OVCAR-3 ovarian
# [32] = system: OVCAR-4 ovarian
# [33] = system: OVCAR-5 ovarian
# [34] = system: OVCAR-8 ovarian
# [35] = system: RPMI-8226 leukemia
# [36] = system: RXF 393 renal
# [37] = system: RXF-631 renal
# [38] = system: SF-268 CNS
# [39] = system: SF-295 CNS
# [40] = system: SF-539 CNS
# [41] = system: SK-MEL-2 melanoma
# [42] = system: SK-MEL-28 melanoma
# [43] = system: SK-MEL-5 melanoma
# [44] = system: SK-OV-3 ovarian
# [45] = system: SN12C renal
# [46] = system: SNB-19 CNS
# [47] = system: SNB-75 CNS
# [48] = system: SNB-78 CNS
# [49] = system: SR leukemia
# [50] = system: SW-620 colon
# [51] = system: TK-10 renal
# [52] = system: U251 CNS
# [53] = system: UACC-257 melanoma
# [54] = system: UO-31 renal
# [55] = system: XF 498 CNS
# [56] = system: EKVX NSCLC
# [57] = system: HOP-92 NSCLC
# [58] = system: KM20L2 colon
# [59] = system: UACC-62 melanoma
compound,measurement,setting,value
Cc1[nH]c2ccccc2c1C(=O)CC1(O)C(=O)Nc2c(Cl)cc(Cl)cc21 (stereo not drawn),TGI,[1],> 100 µM
same,TGI,[2],67.4 µM
same,TGI,[3],96.3 µM
same,TGI,[4],53.5 µM
same,TGI,[5],98.3 µM
same,TGI,[6],47.9 µM
same,TGI,[7],61.7 µM
same,TGI,[8],> 100 µM
same,TGI,[9],44.9 µM
same,TGI,[10],> 100 µM
same,TGI,[11],> 100 µM
same,TGI,[12],> 100 µM
same,TGI,[13],> 100 µM
same,TGI,[14],37.6 µM
same,TGI,[15],85.6 µM
same,TGI,[16],> 100 µM
same,TGI,[17],> 100 µM
same,TGI,[18],> 100 µM
same,TGI,[19],58 µM
same,TGI,[20],> 100 µM
same,TGI,[21],72.5 µM
same,TGI,[22],30.8 µM
same,TGI,[23],53.9 µM
same,TGI,[24],24.6 µM
same,TGI,[25],36.1 µM
same,TGI,[26],55.1 µM
same,TGI,[27],42.7 µM
same,TGI,[28],44.5 µM
same,TGI,[29],> 100 µM
same,TGI,[30],32.9 µM
same,TGI,[31],44 µM
same,TGI,[32],21.8 µM
same,TGI,[33],52.1 µM
same,TGI,[34],70.4 µM
same,TGI,[35],53.8 µM
same,TGI,[36],39.2 µM
same,TGI,[37],> 100 µM
same,TGI,[38],57.3 µM
same,TGI,[39],56.2 µM
same,TGI,[40],61.7 µM
same,TGI,[41],81 µM
same,TGI,[42],62 µM
same,TGI,[43],31.5 µM
same,TGI,[44],> 100 µM
same,TGI,[45],55.6 µM
same,TGI,[46],> 100 µM
same,TGI,[47],> 100 µM
same,TGI,[48],> 100 µM
same,TGI,[49],54.8 µM
same,TGI,[50],52 µM
same,TGI,[51],> 100 µM
same,TGI,[52],> 100 µM
same,TGI,[53],31.5 µM
same,TGI,[54],60.9 µM
same,TGI,[55],32.8 µM
CC1(O)C=CC(=O)C=C1,TGI,[1],49.6 µM
same,TGI,[2],> 78.6 µM
same,TGI,[3],> 100 µM
same,TGI,[4],> 62.8 µM
same,TGI,[5],91.5 µM
same,TGI,[6],> 77 µM
same,TGI,[7],> 100 µM
same,TGI,[8],28.2 µM
same,TGI,[9],32.3 µM
same,TGI,[10],38.5 µM
same,TGI,[56],> 100 µM
same,TGI,[11],> 100 µM
same,TGI,[12],> 100 µM
same,TGI,[13],31.7 µM
same,TGI,[14],52.8 µM
same,TGI,[15],> 100 µM
same,TGI,[16],> 79.9 µM
same,TGI,[57],> 100 µM
same,TGI,[17],> 100 µM
same,TGI,[18],70.2 µM
same,TGI,[19],> 100 µM
same,TGI,[20],> 75.4 µM
same,TGI,[58],> 100 µM
same,TGI,[21],52.5 µM
same,TGI,[22],26.4 µM
same,TGI,[23],41.6 µM
same,TGI,[24],58.6 µM
same,TGI,[25],39.5 µM
same,TGI,[26],> 72.7 µM
same,TGI,[27],> 100 µM
same,TGI,[28],93.8 µM
same,TGI,[29],44.9 µM
same,TGI,[30],33.7 µM
same,TGI,[31],51.4 µM
same,TGI,[32],> 91.1 µM
same,TGI,[33],> 100 µM
same,TGI,[34],> 68.8 µM
same,TGI,[35],> 100 µM
same,TGI,[36],44.4 µM
same,TGI,[38],29.2 µM
same,TGI,[39],> 100 µM
same,TGI,[40],54.9 µM
same,TGI,[41],56 µM
same,TGI,[42],38.5 µM
same,TGI,[43],> 89.4 µM
same,TGI,[44],> 100 µM
same,TGI,[45],> 100 µM
same,TGI,[46],70.3 µM
same,TGI,[47],> 100 µM
same,TGI,[48],97.2 µM
same,TGI,[49],61.2 µM
same,TGI,[50],> 100 µM
same,TGI,[51],> 93 µM
same,TGI,[52],48.1 µM
same,TGI,[53],34.2 µM
same,TGI,[59],36.2 µM
same,TGI,[54],> 84.5 µM
same,TGI,[55],> 65.1 µM
